{"source": "patent US20220378706A1", "about": "“PHARMACEUTICAL COMPOSITION COMPRISING PDE9 INHIBITOR” (Eisai R&D Management Co., Ltd., priority 2017, published 2022)", "key": {"[1]": {"experiment": "Single dose clinical study: safety assessments (adverse events)", "assay_type": "in vivo, human", "details": "for incidence of any TEAEs: Part B 100 mg Cohort", "excerpt": "Safety assessments consisted of monitoring and recording all adverse events (AEs) and serious adverse events (SAEs); laboratory evaluation for hematology, blood chemistry, and urine values; periodic measurement of vital signs (including orthostatic changes in blood pressure [BP] and heart rate [HR]) and electrocardiograms (ECGs); and the performance of physical examinations.\nSafety data evaluated included AEs, clinical laboratory results, vital signs, and ECGs. Treatment emergent adverse events (TEAEs) were summarized by presenting the incidence of AEs for each cohort and dose group. For the laboratory, vital signs, and ECG data in all cohorts in any treatment period, the baseline was the values recorded immediately prior to dosing with study drug in that treatment period."}, "[2]": {"experiment": "Single dose clinical study Part B: CSF Compound A pharmacokinetics", "assay_type": "in vivo", "details": "human", "description": "After the Screening Period, subjects returned to the clinic on […] for Baseline procedures. […] Serial CSF sampling via the lumbar catheter commenced on Day 1, after an overnight fast. CSF samples were collected on Day 1 over a period of 3 hours predose. Subjects were then administered study drug, and serial CSF sampling for 30 hours postdose was performed to determine CSF cGMP and CSF Compound A concentrations. Blood samples for plasma Compound A PK were collected at the same time points as CSF sampling. Safety evaluations were also performed.\nConcentrations of Compound A in CSF were analyzed in serial CSF samples collected at predose and postdose at 1, 2, 3, 4, 5, 6, 8, 10, 12, 14, 16, 18, 24, and 30 hours.\nPlasma, urine and CSF concentrations of Compound A were measured using validated liquid chromatography mass spectrometry/mass spectrometry (LC MS/MS) assay methods. CSF concentrations of cGMP were measured using a validated LC-MS/MS assay method.\nThe following PK parameters were derived by noncompartmental analysis using CSF Compound A concentrations: […]"}, "[3]": {"test_system": "scopolamine-induced memory impairment in rats", "experiment": "Scopolamine-induced memory impairment in rat novel object recognition test", "assay_type": "in vivo", "details": "scopolamine 0.7 mg/kg i.p., mean ± SEM", "excerpt": "(Effects of Compound a Monomaleate Salt on Scopolamine-Induced Memory Impairment in Rat Novel Object Recognition Test)\nThe effects of orally administered Compound A monomaleate salt on scopolamine-induced memory impairment in a novel object recognition test in rats was examined.\nSix-week-old male Long-Evans rats (Institute for Animal Reproduction) were used in this study. Before test day, rats were placed in each experimental apparatus once a day, on two consecutive days to habituate rats to the test chamber. […]\nFollowing a 2-hour […] interval, a retention trial (T2) was conducted. […] Animal performance in T1 and T2 was recorded with a digital video camera, and the amount of time spent exploring each object was measured by manual stopwatches. […]\nIn novel object recognition test, the following novel object exploration ratio in T2 is considered as amnesic indexes reflecting the discrimination between the familiar and novel objects. These indexes are calculated according to the following formulas: […]\nData are expressed as the mean±SEM. The difference between the non-scopolamine treated control and scopolamine treated control groups were analyzed using unpaired t test. The effects of Compound A monomaleate salt on novel object exploration ratio in T2 was analyzed by one-way analysis of variance (ANOVA) followed by the Dunnett multiple comparison test. […]"}}, "note": "Where two headings read alike, the source gives them in different places.", "data": [{"compound": "COc1ncc(C)c(-c2ccc3c(c2)[nH]c(=O)c2cnn([C@H]4CCOC4)c23)c1C", "note": "[Compound A, (S)-7-(2-methoxy-3,5-dimethylpyridin-4-yl)-1-(tetrahydrofuran-3-yl)-1H-pyrazolo[4,3-c]quin olin-4(5H)-one]", "values": [{"measurement": "tolerability", "setting": "[1]; Part A healthy adult subjects, single oral doses 10 to 1200 mg", "result": "well tolerated"}, {"measurement": "TEAE back pain", "setting": "[1]; Part B", "result": 20.8, "unit": "%"}, {"measurement": "TEAE dizziness", "setting": "[1]; Part B", "result": 16.7, "unit": "%"}, {"measurement": "TEAE headache", "setting": "[1]; Part B", "result": 29.2, "unit": "%"}, {"measurement": "TEAE musculoskeletal stiffness", "setting": "[1]; Part B", "result": 20.8, "unit": "%"}, {"measurement": "TEAE nausea", "setting": "[1]; Part B", "result": 12.5, "unit": "%"}, {"measurement": "TEAE pain in extremity", "setting": "[1]; Part B", "result": 8.3, "unit": "%"}, {"measurement": "TEAE post lumbar puncture syndrome", "setting": "[1]; Part B", "result": 37.5, "unit": "%"}, {"measurement": "TEAE procedural nausea", "setting": "[1]; Part B", "result": 8.3, "unit": "%"}, {"measurement": "TEAE procedural vomiting", "setting": "[1]; Part B", "result": 8.3, "unit": "%"}, {"measurement": "TEAE vomiting", "setting": "[1]; Part B", "result": 20.8, "unit": "%"}, {"measurement": "incidence of any TEAEs", "setting": "[1]; fasted state", "result": 66.7, "unit": "%"}, {"measurement": "incidence of any TEAEs", "setting": "[1]; fed state", "result": 50, "unit": "%"}, {"measurement": "tolerability", "setting": "[1]; Part B healthy adults with serial CSF sampling, single oral doses 50 to 400 mg", "result": "well tolerated"}, {"measurement": "subjects with at least 1 TEAE", "setting": "[1]; Part B, both treatment periods, all doses", "result": 83.3, "unit": "%"}, {"measurement": "tolerability", "setting": "[1]; Part C healthy elderly subjects, single dose 100 mg", "result": "well tolerated"}, {"measurement": "subjects with at least 1 TEAE", "setting": "[1]; Part C healthy elderly, 100 mg", "result": 16.7, "unit": "%"}, {"measurement": "TEAE headache", "setting": "[1]; Part D", "result": 16.7, "unit": "%"}, {"measurement": "tolerability", "setting": "[1]; Part D healthy Japanese adult subjects, single oral doses 25 to 400 mg", "result": "well tolerated"}, {"measurement": "subjects with at least 1 TEAE", "setting": "[1]; Part D, all doses", "result": 38.9, "unit": "%"}, {"measurement": "TEAE dizziness", "setting": "[1]; Parts A and C", "result": 5.6, "unit": "%"}, {"measurement": "TEAE headache", "setting": "[1]; Parts A and C", "result": 11.6, "unit": "%"}, {"measurement": "TEAE increase in orthostatic heart rate response", "setting": "[1]; Parts A and C", "result": 3.7, "unit": "%"}, {"measurement": "TEAE insomnia", "setting": "[1]; Parts A and C", "result": 5.6, "unit": "%"}, {"measurement": "TEAE paresthesia", "setting": "[1]; Parts A and C", "result": 3.7, "unit": "%"}, {"measurement": "TEAE postural orthostatic tachycardia", "setting": "[1]; Parts A and C", "result": 5.6, "unit": "%"}, {"measurement": "deaths or SAEs", "setting": "[1]; Parts A and C", "result": "no deaths or SAEs"}, {"measurement": "subjects with at least 1 TEAE", "setting": "[1]; Parts A and C, all doses", "result": 42.6, "unit": "%"}, {"measurement": "maximum tolerated dose", "setting": "[1]; single oral doses 10 to 1200 mg, healthy adults", "result": "not reached"}, {"measurement": "Kp", "setting": "[2]; CSF and plasma, oral, 50 to 400 mg, read-out: GM ratios of CSF AUC(0-t) to plasma AUC(0-t) across doses", "result": "0.0241 to 0.028"}, {"measurement": "Kp", "setting": "[2]; CSF and plasma, oral, 50 to 400 mg, read-out: GM ratios of CSF Cmax to plasma Cmax across doses", "result": "0.02 to 0.0277"}, {"measurement": "Kp", "setting": "[2]; CSF and plasma, po, 50 mg, healthy adults Part B, single oral 50 mg, fasted, read-out: CSF: plasma Cmax ratio (expressed as %) GM (% CV)", "result": 0.02}, {"measurement": "Kp", "setting": "[2]; CSF and plasma, po, 75 mg, healthy adults Part B, single oral 75 mg, fasted, from AUC (0-t) or AUC (0-30 h), read-out: CSF: plasma AUC ratio (expressed as %) GM (% CV)", "result": 0.0264}, {"measurement": "Kp", "setting": "[2]; CSF and plasma, po, 75 mg, healthy adults Part B, single oral 75 mg, fasted, read-out: CSF: plasma Cmax ratio (expressed as %) GM (% CV)", "result": 0.0264}, {"measurement": "Kp", "setting": "[2]; CSF and plasma, po, 100 mg, healthy adults Part B, single oral 100 mg, fasted, from AUC (0-t) or AUC (0-30 h), read-out: CSF: plasma AUC ratio (expressed as %) GM (% CV)", "result": 0.0266}, {"measurement": "Kp", "setting": "[2]; CSF and plasma, po, 100 mg, healthy adults Part B, single oral 100 mg, fasted, read-out: CSF: plasma Cmax ratio (expressed as %) GM (% CV)", "result": 0.0194}, {"measurement": "Kp", "setting": "[2]; CSF and plasma, po, 200 mg, healthy adults Part B, single oral 200 mg, fasted, from AUC (0-t) or AUC (0-30 h), read-out: CSF: plasma AUC ratio (expressed as %) GM (% CV)", "result": 0.0238}, {"measurement": "Kp", "setting": "[2]; CSF and plasma, po, 200 mg, healthy adults Part B, single oral 200 mg, fasted, read-out: CSF: plasma Cmax ratio (expressed as %) GM (% CV)", "result": 0.0214}, {"measurement": "Kp", "setting": "[2]; CSF and plasma, po, 400 mg, healthy adults Part B, single oral 400 mg, fasted, from AUC (0-t) or AUC (0-30 h), read-out: CSF: plasma AUC ratio (expressed as %) GM (% CV)", "result": 0.0279}, {"measurement": "Kp", "setting": "[2]; CSF and plasma, po, 400 mg, healthy adults Part B, single oral 400 mg, fasted, read-out: CSF: plasma Cmax ratio (expressed as %) GM (% CV)", "result": 0.0203}, {"measurement": "Kp", "setting": "[2]; CSF, oral, 50 to 400 mg, read-out: mean CSF:plasma ratios (expressed as percentages) of Cmax or AUC(0-t)", "result": "0.02 to 0.03"}, {"measurement": "Tmax", "setting": "[2]; CSF, oral, single doses (50 to 400 mg except 50 mg; b332: 100 to 400 mg), read-out: median CSF tmax across doses", "result": "4.37 to 6.87", "unit": "h"}, {"measurement": "Tmax", "setting": "[2]; CSF, healthy adults Part B, single oral 50 mg, fasted, read-out: CSF tmax Median", "result": 11.9, "unit": "h"}, {"measurement": "Tmax", "setting": "[2]; CSF, healthy adults Part B, single oral 75 mg, fasted, read-out: CSF tmax Median", "result": 5.37, "unit": "h"}, {"measurement": "Tmax", "setting": "[2]; CSF, healthy adults Part B, single oral 100 mg, fasted, read-out: CSF tmax Median", "result": 6.87, "unit": "h"}, {"measurement": "Tmax", "setting": "[2]; CSF, healthy adults Part B, single oral 200 mg, fasted, read-out: CSF tmax Median", "result": 4.37, "unit": "h"}, {"measurement": "Tmax", "setting": "[2]; CSF, healthy adults Part B, single oral 400 mg, fasted, read-out: CSF tmax Median", "result": 5.37, "unit": "h"}, {"measurement": "Novel object exploration ratio in T2", "setting": "[3]; 3.3 mg/kg oral", "result": "68.5 ± 2.0", "unit": "%"}, {"measurement": "Novel object exploration ratio in T2", "setting": "[3]; 10 mg/kg oral", "result": "68.5 ± 1.6", "unit": "%"}]}]}
